Results: ChEMBL document CHEMBL4359816, “Discovery and Optimization of Quinolinone Derivatives as Potent, Selective, and Orally Bioavailable Mutant Isocitrate Dehydrogenase 1 (mIDH1) Inhibitors” (J Med Chem, 2019)

Columns and labels:
[1] = Metabolic stability in human liver microsomes assessed as compound remaining after 30 mins; type: ADME, Microsome; settings: read-out: Stability
[2] = target: Isocitrate dehydrogenase [NADP] cytoplasmic (Homo sapiens, UniProt O75874, R132C); experiment: Inhibition of human Myc-DDK-tagged IDH1 R132C mutant expressed in human U87MG cells assessed as reduction in 2-HG levels after 24 hrs by RapidFire high-throughput mass spectrometry assay; type: cell-based
Sequence of Isocitrate dehydrogenase [NADP] cytoplasmic (Homo sapiens, UniProt O75874, R132C) (O75874 2-414 R132C limits assumed): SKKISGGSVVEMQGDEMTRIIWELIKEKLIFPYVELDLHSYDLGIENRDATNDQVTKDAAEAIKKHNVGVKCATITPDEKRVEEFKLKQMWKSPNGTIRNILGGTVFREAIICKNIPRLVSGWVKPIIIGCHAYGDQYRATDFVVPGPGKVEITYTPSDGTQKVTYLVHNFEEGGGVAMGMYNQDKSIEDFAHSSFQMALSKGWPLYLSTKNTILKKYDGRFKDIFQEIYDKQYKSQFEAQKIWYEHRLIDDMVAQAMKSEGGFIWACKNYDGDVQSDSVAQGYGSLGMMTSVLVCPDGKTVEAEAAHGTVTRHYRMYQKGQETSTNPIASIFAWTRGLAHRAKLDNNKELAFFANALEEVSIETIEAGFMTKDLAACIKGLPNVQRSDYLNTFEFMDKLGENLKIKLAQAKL

[3] = target: Isocitrate dehydrogenase [NADP] cytoplasmic (Homo sapiens, UniProt O75874, R132G); experiment: Inhibition of human Myc-DDK-tagged IDH1 R132G mutant expressed in human U87MG cells assessed as reduction in 2-HG levels after 24 hrs by RapidFire high-throughput mass spectrometry assay; type: cell-based
Sequence of Isocitrate dehydrogenase [NADP] cytoplasmic (Homo sapiens, UniProt O75874, R132G) (O75874 2-414 R132G limits assumed): as the sequence (O75874 2-414 R132C limits assumed) above, with C131G counted along it

[4] = target: Isocitrate dehydrogenase [NADP] cytoplasmic (Homo sapiens, UniProt O75874, R132L); experiment: Inhibition of human Myc-DDK-tagged IDH1 R132L mutant expressed in human U87MG cells assessed as reduction in 2-HG levels after 24 hrs by RapidFire high-throughput mass spectrometry assay; type: cell-based
Sequence of Isocitrate dehydrogenase [NADP] cytoplasmic (Homo sapiens, UniProt O75874, R132L) (O75874 2-414 R132L limits assumed): as the sequence (O75874 2-414 R132C limits assumed) above, with C131L counted along it

[5] = Apparent permeability from basolateral side to apical side in MDCK cells; type: ADME, cell-based, Canis lupus familiaris; settings: dog
[6] = Intrinsic clearance in human hepatocytes; type: ADME, cell-based, Hepatocyte; settings: read-out: CLH
[7] = Clearance in rat at 1 mg/kg, iv or 5 mg/kg, po; type: ADME, organism-based; settings: in vivo
[8] = Oral bioavailability in rat at 5 mg/kg; type: ADME, organism-based; settings: in vivo
[9] = Half-life in mouse at 1 mg/kg, iv or 5 mg/kg, po; type: ADME, organism-based; settings: in vivo
[10] = Total AUC (infinity) in dog at 0.5 mg/kg, iv; type: ADME, organism-based, Canis lupus familiaris; set-up: dose 0.5 mg/kg, time AUCmax, route intravenous; settings: in vivo
[11] = fAUC (infinity) in dog at 0.5 mg/kg, iv; type: ADME, organism-based, Canis lupus familiaris; settings: in vivo
[12] = Free drug concentration in tumor of human HCT116 harboring R132C mutant xenografted in po dosed BALB/c nude mouse administered at 12 hrs intervals and measured after 4 to 24 hrs post last dose; type: ADME, organism-based, Neoplasm; settings: in vivo
Mus musculus [13] = experiment: In vivo inhibition of IDH1 R132C mutant in human HCT116 cells xenografted in BALB/c nude mouse assessed as reduction in tumor 2-HG level at 25 mg/kg, po bid administered at 12 hrs intervals and measured at <= 12 hrs post last dose by LC-MS analysis relative to control; type: functional; settings: HCT-116, po
Mus musculus [14] = type: functional, BALB/c
[15] = target: Isocitrate dehydrogenase [NADP], mitochondrial (Homo sapiens, UniProt P48735, R172K); experiment: Inhibition of IDH2 R172K mutant (unknown origin)
Sequence of Isocitrate dehydrogenase [NADP], mitochondrial (P48735 40-452 R172K limits assumed): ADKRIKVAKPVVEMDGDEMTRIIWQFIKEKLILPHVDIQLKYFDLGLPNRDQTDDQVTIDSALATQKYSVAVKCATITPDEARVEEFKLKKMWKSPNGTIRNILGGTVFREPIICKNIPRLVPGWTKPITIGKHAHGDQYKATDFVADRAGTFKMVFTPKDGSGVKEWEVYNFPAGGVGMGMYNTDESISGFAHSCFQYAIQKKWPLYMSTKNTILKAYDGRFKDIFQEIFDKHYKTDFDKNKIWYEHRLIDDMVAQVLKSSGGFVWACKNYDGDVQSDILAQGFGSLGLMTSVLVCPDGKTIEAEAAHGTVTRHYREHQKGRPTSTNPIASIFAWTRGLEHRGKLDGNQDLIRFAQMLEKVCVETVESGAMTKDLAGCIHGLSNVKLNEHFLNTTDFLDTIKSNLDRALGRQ

CYP1A2 = CYP1A2 (Homo sapiens, UniProt P05177); experiment: Inhibition of CYP1A2 (unknown origin) at 10 uM relative to control; type: ADME
Sequence of CYP1A2 (P05177 whole entry): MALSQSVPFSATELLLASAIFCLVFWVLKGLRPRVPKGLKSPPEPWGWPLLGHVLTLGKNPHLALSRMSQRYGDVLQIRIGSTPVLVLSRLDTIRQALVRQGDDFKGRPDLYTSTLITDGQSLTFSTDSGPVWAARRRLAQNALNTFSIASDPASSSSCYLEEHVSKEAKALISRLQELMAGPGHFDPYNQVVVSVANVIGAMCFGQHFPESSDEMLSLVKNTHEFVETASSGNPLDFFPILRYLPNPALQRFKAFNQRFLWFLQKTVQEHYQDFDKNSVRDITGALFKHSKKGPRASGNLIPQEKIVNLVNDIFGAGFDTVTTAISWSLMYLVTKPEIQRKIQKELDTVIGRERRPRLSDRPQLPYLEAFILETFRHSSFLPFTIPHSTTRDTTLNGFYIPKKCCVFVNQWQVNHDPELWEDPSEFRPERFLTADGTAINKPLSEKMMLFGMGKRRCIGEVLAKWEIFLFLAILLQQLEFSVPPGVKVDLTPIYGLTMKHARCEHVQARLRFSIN

Cytochrome P450 3A4 = Cytochrome P450 3A4 (Homo sapiens, UniProt P08684); experiment: Time dependent inhibition of CYP3A4 (unknown origin) at <5 uM pre-incubated for 30 mins followed by midazolam substrate addition in presence of NADPH; type: ADME
Sequence of Cytochrome P450 3A4 (P08684 whole entry): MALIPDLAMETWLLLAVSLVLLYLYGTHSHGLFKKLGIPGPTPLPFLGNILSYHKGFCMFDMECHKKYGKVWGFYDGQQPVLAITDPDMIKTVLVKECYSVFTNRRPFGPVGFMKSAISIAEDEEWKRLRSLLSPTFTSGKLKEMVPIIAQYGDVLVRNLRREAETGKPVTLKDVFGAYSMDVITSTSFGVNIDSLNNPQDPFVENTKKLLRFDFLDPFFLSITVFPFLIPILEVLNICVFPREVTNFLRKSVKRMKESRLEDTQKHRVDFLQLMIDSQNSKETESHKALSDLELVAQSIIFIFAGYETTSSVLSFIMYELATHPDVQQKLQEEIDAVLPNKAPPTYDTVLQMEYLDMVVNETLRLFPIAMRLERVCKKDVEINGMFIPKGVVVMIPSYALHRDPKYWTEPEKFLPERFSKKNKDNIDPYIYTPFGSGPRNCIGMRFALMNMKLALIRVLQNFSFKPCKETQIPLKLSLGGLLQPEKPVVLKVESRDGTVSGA

PXR = PXR (Homo sapiens, UniProt O75469); experiment: Activation of PXR (unknown origin) stably expressed in human HepG2 cells at 10 uM relative to rifampicin; type: ADME, cell-based; settings: HepG2 cells stably expressing PXR, read-out: Activity
Sequence of PXR (O75469 whole entry): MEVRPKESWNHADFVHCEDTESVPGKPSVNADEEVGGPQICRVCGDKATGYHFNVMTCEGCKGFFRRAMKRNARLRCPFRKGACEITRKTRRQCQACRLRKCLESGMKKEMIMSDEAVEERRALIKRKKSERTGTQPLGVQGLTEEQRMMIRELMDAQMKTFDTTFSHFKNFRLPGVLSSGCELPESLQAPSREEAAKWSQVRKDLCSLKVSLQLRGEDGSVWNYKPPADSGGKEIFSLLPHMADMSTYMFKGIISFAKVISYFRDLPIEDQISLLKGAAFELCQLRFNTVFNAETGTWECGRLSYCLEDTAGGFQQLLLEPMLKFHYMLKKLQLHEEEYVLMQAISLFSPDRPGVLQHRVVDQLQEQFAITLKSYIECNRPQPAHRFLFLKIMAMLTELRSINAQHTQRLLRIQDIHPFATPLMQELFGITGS

[16] = target: alpha1 adrenergic receptor (Homo sapiens, UniProt P35348); experiment: Displacement of [3H] prazosin from human alpha1 adrenergic receptor at 1 uM measured after 60 mins by scintillation counting method relative to control; settings: probe [3H] prazosin
Sequence of alpha1 adrenergic receptor (P35348 whole entry): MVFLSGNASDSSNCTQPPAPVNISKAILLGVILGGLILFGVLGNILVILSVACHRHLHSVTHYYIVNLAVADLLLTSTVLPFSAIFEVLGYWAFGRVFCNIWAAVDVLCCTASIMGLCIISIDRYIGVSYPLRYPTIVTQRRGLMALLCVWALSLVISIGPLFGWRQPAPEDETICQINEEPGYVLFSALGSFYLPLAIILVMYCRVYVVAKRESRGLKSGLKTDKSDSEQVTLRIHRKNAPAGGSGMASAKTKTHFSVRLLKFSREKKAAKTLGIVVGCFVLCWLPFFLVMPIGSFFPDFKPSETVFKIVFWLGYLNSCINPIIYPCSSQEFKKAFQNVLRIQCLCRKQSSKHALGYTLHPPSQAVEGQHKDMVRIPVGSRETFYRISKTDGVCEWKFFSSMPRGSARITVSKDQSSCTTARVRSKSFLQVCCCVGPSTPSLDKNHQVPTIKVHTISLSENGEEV

[17] = Metabolic stability in dog liver microsomes assessed as compound remaining after 30 mins; type: ADME, Canis lupus familiaris, Microsome; settings: read-out: Stability
[18] = Protein binding in mouse plasma assessed as unbound fraction; type: ADME, cell-free

remaining at 0.5 h [1]: 100 to 108%
IC50 [2]: 130 nM
IC50 [3]: 120 nM
IC50 [4]: 60 nM
Papp B→A [5]: 7.97 ×10⁻⁶ cm/s
CLint scaled [6]: 13.7 mL/min/kg
clearance [7]: 8.6 mL/min/kg
bioavailability [8]: 81%
half-life [9]: 10 h
AUC(0-inf) [10]: 3.3 µM·h
fAUC [11]: 0.123 µM·h
Drug uptake(free) [12]: Dose-dependent effect
IC50 [15]: 33800 nM
inhibition at 10 µM (CYP1A2): 35.4%
TDI (Cytochrome P450 3A4): Not Active
activity at 10 µM (PXR): 15%
inhibition at 1 h, 1 µM [16]: > 50%
remaining at 0.5 h [17]: 94%
fraction unbound [18]: 0.019
Compound: COc1nc(N[C@@H](C)c2cc3cc(Cl)ccc3[nH]c2=O)ncc1C#N
inhibition in vivo at 25 mg/kg (Mus musculus [13]): > 90%
fIC50 (Mus musculus [14]): 49 nM
